Data taken from article PMC8347148, “An Evaluation of Human Induced Pluripotent Stem Cells to Test for Cardiac Developmental Toxicity” (International Journal of Molecular Sciences, 2021).
In brackets after ≈: the same amount, converted by molar mass. Read-outs that look alike come from different tables or passages of the source.

Tests used:
[1] = test system: RIV9 hiPSC-derived cardiomyocytes; assay: hiPSC-EST cardiac contractile assay (count of contracting cardiomyocyte clusters); format: cell-based, human; settings: for hiPSC ID50: day 25, 50% inhibition of functional (contracting) cardiomyocytes vs control; for doses with reduced contractile activity / incidence: Figure 3
Procedure: The hiPSC cell line RIV9 was obtained from the Stem Cell Core at the University of California, Riverside. hiPSCs were seeded on Matrigel (Corning, Glendale, AZ, USA)-coated tissue culture plates and maintained in a pluripotent state in mTeSR® medium (Stem Cell Technologies, Seattle, WA, USA). Cells were cultured under a humidified atmosphere of 5% CO2 at 37 °C and passaged for maintenance or to seed for experiments approximately every 5 days as previously described.
After cells reached 70% confluency (designated day 0), the medium was changed to control differentiation medium supplemented with 0.06 mg/mL ascorbic acid (Sigma-Aldrich, St. Louis, MO, USA) to induce cardiac differentiation. Control differentiation medium was comprised of Dulbecco’s modified Eagle’s medium (DMEM with 4.5 g/L glucose, L-glutamine and sodium pyruvate; Corning) supplemented with 18% FBS (PAA), 0.8% penicillin/streptomycin (10,000 units/10,000 units, Gibco, ThermoFisher Scientific, Grand Island, NY, USA), 0.12% non-essential amino acids (NEAA; Gibco), and 0.1 mM β-mercaptoethanol (Gibco). Cultures were cultured in differentiation media for 25 days, starting from day 0.
(§1) 5-flurorouracil (5-FU), all-trans retinoic acid (atRA), and penicillin G (PenG) were selected from a subset of chemicals used in the original EST validation study. 5-FU and atRA were selected as positive test compounds due to their established embryotoxic potential while PenG was used as a negative control. All chemicals were purchased from Sigma. Stock solutions were prepared in DMSO and filtered through a 0.2 micron Acrodisc® PSF Syringe Filter (Pall Corporation, Port Washington, NY, USA), aliquoted into sterile microcentrifuge tubes and stored at −20 °C until use. Test chemicals were serially diluted to final concentrations in differentiation media. Cardiogenic cultures were treated with designated chemicals (or solvent only) through day 25 of differentiation and hFF cultures were treated with each compound for a 25 day duration period. Compounds were replenished with each medium change.
(§2) A University of Kentucky smoking machine was used to produce smoke extract solutions from commercially available conventional Marlboro Red 100 brand cigarettes as previously described. The smoking machine took a 2.2 s puff of mainstream (MS) smoke every minute. Smoke solution concentrations were made in puff equivalents (PE), which are the number of cigarette puffs dissolved in 1 mL of medium. MS smoke solutions were produced by pulling 30 puffs of MS smoke through 10 mL of DMEM. Resulting 3 PE smoke extracts were filtered through a 0.2 micron Acrodisc® PSF Syringe Filter (Pall Corporation, Port Washington, NY, USA), aliquoted into sterile microcentrifuge tubes, and stored at −80 °C until use. Serial dilutions were performed in differentiation medium to reach desired final exposure concentrations. Cardiogenic cultures were treated with smoke solutions through 25 days of differentiation. Smoke solutions were replenished with each medium change.
A 10% (w/v) Camel Snus extract was prepared as previously described. Ten grams of Snus was added to 85 mL of DMEM and allowed to incubate at 37 °C for 2 h. This initial extract solution was centrifuged for 10 min at 4500× g. Supernatant from the first round of centrifugation was then centrifuged again at 13,000× g for 1 h. The resulting supernatant was collected and pH adjusted to 7.4. 15 mL of FBS was added to the pH-adjusted Snus extract to produce a 10% stock solution of Snus tobacco extract (STE). The stock solution was then sterile-filtered with a 0.22 μm vacuum filter system. STE was aliquoted into sterile microcentrifuge tubes and stored at −80 °C until use. Serial dilutions were performed in differentiation medium to reach desired final exposure concentrations. Cardiogenic cultures were treated with STE through 25 days of differentiation. STE was replenished with each medium change. […]

[2] = test system: differentiating hiPSCs (hiPSC-cardiomyocytes); assay: hiPSC-EST cardiac viability assay (MTT); format: cell-based, human; settings: for IC50: Homo sapiens, 600 h
Procedure: as §1, §2
A 10% (w/v) Camel Snus extract was prepared as previously described. Ten grams of Snus was added to 85 mL of DMEM and allowed to incubate at 37 °C for 2 h. This initial extract solution was centrifuged for 10 min at 4500× g. Supernatant from the first round of centrifugation was then centrifuged again at 13,000× g for 1 h. The resulting supernatant was collected and pH adjusted to 7.4. 15 mL of FBS was added to the pH-adjusted Snus extract to produce a 10% stock solution of Snus tobacco extract (STE). The stock solution was then sterile-filtered with a 0.22 μm vacuum filter system. STE was aliquoted into sterile microcentrifuge tubes and stored at −80 °C until use. Serial dilutions were performed in differentiation medium to reach desired final exposure concentrations. Cardiogenic cultures were treated with STE through 25 days of differentiation. STE was replenished with each medium change.
Cardiomyocyte survival following concurrent exposure to each compound was evaluated by 3-[4,5-dimethylthiazol-2-yl]-2,5-diphenylterazolium bromide (MTT) assay from three independent differentiations each carried out in technical quintuplicate as previously described. On day 25 of differentiation, cells were incubated with MTT (5 mg/mL) for 2 h at 37 °C. MTT supernatant was removed and replaced with a desorb solution of 0.7% SDS in 2-propanol. The absorbance of the solution was measured at 570 nm in an iMark™ microplate reader (Bio-Rad) with 655 nm as a reference wavelength. Here, mitochondrial dehydrogenase activity on the MTT in solution is directly proportional to a blue-purple product that is detected at 570 nm.
Half-maximal inhibitory compound doses of differentiation (ID50) and cytotoxicity (IC50) were determined from concentration-response curves using GraphPad Prism.

[3] = test system: mESCs; set-up: method as in PMID 14761682; settings: mESC-EST, inhibition of differentiation; previously obtained in the authors' lab; cited from earlier work
[4] = test system: 3T3 fibroblast cells; set-up: method as in PMID 14761682; settings: mESC-EST, 3T3 viability; previously obtained in the authors' lab; cited from earlier work
[5] = maximum plasma concentration, human exposure; cited from earlier work
[6] = read-out: hiPSC IC50, day 25, MTT, 50% inhibition of viable cells vs control
[7] = day 25, MTT, 50% inhibition of viable cells vs control

| Structure (SMILES) | concentrations that negatively impacted the formation of contractile structures ([1]; by day 20, Figure 2) | hiPSC ID50 [1] [ng/mL] | IC50 [2, 6] [µg/mL] | concentrations with reductions in hiPSC cell viability ([2]; MTT, Figure 4A) | hiPSC IC50 [2, 7] [µg/mL] | mESCs ID50 [3] [µg/mL] | mESCs 3T3 IC50 [4] [µg/mL] | Cmax [5] | increase in contractile cluster incidence ([1]; 1 × 10^−8 μg/mL) [fold] | concentrations at which cells failed to form contractile clusters ([1]; Figure 2) | doses with reduced contractile activity / incidence [1] | IC50 ([2]; day 25, MTT, 50% inhibition of viable cells vs control, read-out: hiPSC IC50) [µg/mL] | effect on formation of contractile structures [1] | effect on hiPSC cell viability ([2]; tested concentration range) |
| --- | --- | --- | --- | --- | --- | --- | --- | --- | --- | --- | --- | --- | --- | --- |
| O=c1[nH]cc(F)c(=O)[nH]1 [5-Fluorouracil, 5-fluorouracil] | above 1 × 10^−6 μg/mL | 0.00229 | 4.7e-05 (≈ 0.000361 µM) | above 1 × 10^−6 μg/mL | 4.726e-05 | 0.0097 | 0.05 | 0.94 [13] μg/mL | – | – | – | – | – | – |
| CC1=C(/C=C/C(C)=C/C=C/C(C)=C/C(=O)O)C(C)(C)CCC1 [All-Trans Retinoic Acid, all-trans retinoic acid] | – | 0.000933 | – | – | – | 0.0017 | 2.7 | 0.155–0.294 [13] μg/mL | ~2 | above 1 × 10^−3 μg/mL | above 1 × 10^−8 μg/mL | 3.64 (≈ 12.1 µM) | – | – |
| CC1(C)S[C@@H]2[C@H](NC(=O)Cc3ccccc3)C(=O)N2[C@H]1C(=O)O [Penicillin G, penicillin G] | – | 739900 | < 1000 | – | >1000 | 750 | 1000 | 134.6 [12] μg/mL | – | – | > 700 µg/mL | – | did not inhibit the formation of contractile structures | did not find any reduced cell survival |
